Assays:
[1] = system: A375, MIAPaCa-2, HCT116, Colo205, HT-29, and AN3Ca cells; test: Reverse Phase Protein Analysis (RPPA), all six cell lines; format: cell-based; details: 10 μM, 6 hours
Method: (§1) Control wells were treated with DMSO at 0.1% (v/v) for 6 hours prior to cell lysate generation. Samples were then analyzed using reverse-phase protein microarray technology (Theranostics Health).
(§2) Cell lines with common alterations in BRAF and RAS were assayed: BRAF^V600E mutant lines A375, Colo205, and HT29; KRAS^G12C-mutant cell line MIAPACa-2; KRAS^G13D-mutant cell line HCT116; and AN3Ca with atypical HRAS^F82L mutation. Changes in protein levels are shown as a percentage change from dimethyl sulfoxide (DMSO)-treated parental control (FIG. 32A and Table 23).

Colo205 = test: Reverse Phase Protein Analysis (RPPA); format: cell-based, human; details: % change from DMSO (matched cell line)
AN3Ca = test: Reverse Phase Protein Analysis (RPPA); format: cell-based; details: % change from DMSO (matched cell line)
Method: as §1, §2

O=C(Nc1ccc2[nH]nc(-c3ccncc3)c2c1)[C@@H]1CCN(CC(=O)N2CCN(c3ccc(-c4ncccn4)cc3)CC2)C1 [SCH772984]
pERK1/2 (ERK1/2-T202, -Y204) [1]: inhibited pERK1/2 in all cell lines | Avg (4ebp1 T70) (Colo205): −27.51% | Avg (Akt S473) (Colo205): −1.74% | Avg (Akt) (Colo205): −10.31% | Avg (Bad S136) (Colo205): 1.88% | Avg (Bad S155) (Colo205): −10.96% | Avg (Bak) (Colo205): 4.59% | Avg (Bax) (Colo205): −6.44% | Avg (Bcl 2) (Colo205): −14.56% | Avg (Bcl2 S70) (Colo205): −18.52% | Avg (Bcl 2 T56) (Colo205): −6.73% | Avg (Bim) (Colo205): 29.22% | Avg (CREB S133) (Colo205): −14.56% | Avg (Caspase 3 CL D175) (Colo205): 14.08% | Avg (Caspase 7 Cl D198) (Colo205): 12.36% | Avg (Chk1) (Colo205): 7.49% | Avg (Chk1 S345) (Colo205): 1% | Avg (Cyclin D1) (Colo205): −36.7% | Avg (ERK 1 2) (Colo205): −31.87% | Avg (ERK 1 2 T202 Y204) (Colo205): −91.43% | Avg (MAK1 S360) (Colo205): 7.54% | Avg (Mcl1) (Colo205): −0.14% | Avg (Raptor S792) (Colo205): −4.17% | Avg (Raptor) (Colo205): −2.2% | Avg (Rictor) (Colo205): −19.07% | Avg (Stat1) (Colo205): −4.31% | Avg (Stat3) (Colo205): −6.1% | Avg (bad S112) (Colo205): −29.4% | Avg (c Fos) (Colo205): −15.17% | Avg (c Myc) (Colo205): −0.64% | Avg (mTOR S2448) (Colo205): −9.44% | Avg (mTOR S2481) (Colo205): −6.68% | Avg (mTOR) (Colo205): −5.62% | Avg (p70 S6 Kinase) (Colo205): −2.85% | Avg (p90 RSK S380) (Colo205): −62.31% | Avg(S6 Ribo Prot S235 236) (Colo205): −94.67% | Avg(S6 Ribo Prot S240 244) (Colo205): −95.09% | Avg(Tuberin TSC2 Y1571) (Colo205): −1.38% | Avg(p70 S6 Kinase S371 S394) (Colo205): −14.59% | Avg(p70 S6 Kinase T389 T412) (Colo205): −30.4% | Avg (4ebp1 T70) (AN3Ca): 61.57% | Avg (Akt S473) (AN3Ca): 66.17% | Avg (Akt) (AN3Ca): −16.35% | Avg (Bad S136) (AN3Ca): 5.26% | Avg (Bad S155) (AN3Ca): 12.92% | Avg (Bak) (AN3Ca): 9.73% | Avg (Bax) (AN3Ca): 0.15% | Avg (Bcl 2) (AN3Ca): −5.14% | Avg (Bcl2 S70) (AN3Ca): −12.42% | Avg (Bcl 2 T56) (AN3Ca): −10.73% | Avg (Bim) (AN3Ca): −14.09% | Avg (CREB S133) (AN3Ca): 3.64% | Avg (Caspase 3 CL D175) (AN3Ca): 1.25% | Avg (Caspase 7 Cl D198) (AN3Ca): −24.17% | Avg (Chk1) (AN3Ca): 1.35% | Avg (Chk1 S345) (AN3Ca): 14.56% | Avg (Cyclin D1) (AN3Ca): −11.33% | Avg (ERK 1 2) (AN3Ca): −9.27% | Avg (ERK 1 2 T202 Y204) (AN3Ca): 19.75% | Avg (MAK1 S360) (AN3Ca): −5.02% | Avg (Mcl1) (AN3Ca): −7.15% | Avg (Raptor S792) (AN3Ca): −4.03% | Avg (Raptor) (AN3Ca): −11.09% | Avg (Rictor) (AN3Ca): −10.89% | Avg (Stat1) (AN3Ca): 5.52% | Avg (Stat3) (AN3Ca): −6.01% | Avg (bad S112) (AN3Ca): −39.14% | Avg (c Fos) (AN3Ca): −9.18% | Avg (c Myc) (AN3Ca): 0.88% | Avg (mTOR S2448) (AN3Ca): −4.84% | Avg (mTOR S2481) (AN3Ca): 11.24% | Avg (mTOR) (AN3Ca): −5.33% | Avg (p70 S6 Kinase) (AN3Ca): −7.71% | Avg (p90 RSK S380) (AN3Ca): −40.26% | Avg(S6 Ribo Prot S235 236) (AN3Ca): −61.99% | Avg(S6 Ribo Prot S240 244) (AN3Ca): −35.88% | Avg(Tuberin TSC2 Y1571) (AN3Ca): 13.44% | Avg(p70 S6 Kinase S371 S394) (AN3Ca): 24.56%

From US20210038587A1, “METHODS AND COMPOSITIONS FOR TREATING NON-ERK MAPK PATHWAY INHIBITOR-RESISTANT CANCERS” (BIOMED VALLEY DISCOVERIES, INC., priority 2013, published 2021)
